From patent EP1321169A1, “Combination of a serotonin receptor antagonist with a histidine decarboxylase inhibitor as a medicament” (Biofrontera Pharmaceuticals AG, priority 2001, dated 2003)

Legend:
[1] = molecular target: T1, human Histamine H2 receptor (Homo sapiens, UniProt P25021); assay: Cloned human H2 receptor binding assay, [3H]-thiotidine, COS-7 cells; settings: n.A. = no affinity (= no inhibition of histamine activity) detected, read-out: Receptor Affinity: pK Values, measured receptor H2 (converted)
T1 construct: expressed in transfected cells; host or cells: COS-7 (transient)
Description: (§1) COS-7 cells were transiently transfected with an expression plasmid pCineohH1, pCineohH2, pCineohH3 and pCineohH4 encoding the human Histamine H1, H2 H3 or H4 receptor, respectively. Transfected cells were harvested after 48 h, homogenized in ice-cold 50 mM Na2/potassium phosphate buffer (pH 7.4) and used for radioligand binding studies. Cell homogenates (40 - 50 µg of protein) were incubated for 30 min at 25°C in 50 mM Na2/potassium phosphate buffer (pH 7.4) in 400 µl with the various concentrations of either [^3H]-mepyramine, [^3H]-thiotidine, [^3H]-R-α-Methylhistamine, and [^3H]-pyramilamine for cells expressing recombinant human H1, H2, H3 and H4 receptors, respectively. The nonspecific binding was defined in the presence of 1 µM mianserin. In displacement studies, cell homogenated were incubated either with 1 nM [^3H]-mepyramine, 15 nM [^3H]-thiotidine, 0.5 nM [^3H]-R-α-Methylhistamine, or 15 nM [^3H]-pyramilamine and increasing concentrations of competing ligands. The incubations were stopped by rapid dilution with 3 ml of ice-cold 50 mM Na2/potassium phosphate buffer (pH 7.4). The bound radioactivity was separated by filtration through Whatman GF/C filters that had been treated with 0.3 % polyethyleneimine. Filters were washed twice in 3 ml of buffer and radioactivity retained on the filters was measured by liquid scintillation counting.

[2] = system: human histamine receptors; assay: Cloned human H1, H2, H3 and H4 receptor binding assay (summary statement); settings: statement in words
Description: as §1

[3] = repeated administration; cited from earlier work

T1 sequence (P25021 whole entry): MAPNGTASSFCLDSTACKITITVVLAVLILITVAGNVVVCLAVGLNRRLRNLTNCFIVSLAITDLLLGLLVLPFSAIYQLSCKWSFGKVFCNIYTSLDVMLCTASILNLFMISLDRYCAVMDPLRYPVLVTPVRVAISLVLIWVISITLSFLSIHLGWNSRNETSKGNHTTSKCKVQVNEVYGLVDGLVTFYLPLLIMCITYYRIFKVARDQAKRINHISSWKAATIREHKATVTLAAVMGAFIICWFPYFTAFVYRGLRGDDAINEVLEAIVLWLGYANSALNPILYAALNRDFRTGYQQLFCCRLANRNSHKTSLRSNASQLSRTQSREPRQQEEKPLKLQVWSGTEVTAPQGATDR

Ki [1] [nM]	affinity for the human histamine receptors [2]	SMILES	sedative effects [3]	tissue histamine content [3]
2040	–	CCOc1ccc2c(c1)Sc1cccc(OC)c1C2=C1CCN(C)CC1 [4-(6-Ethoxy-1-methoxy-thioxanthen-9-yliden)-1-methyl-piperidine]	–	–
1050	–	COc1cccc2c1C(=C1CCN(C)CC1)c1ccc(C(C)C)cc1S2 [4-(6-Isopropyl-1-methoxy-thioxanthen-9-yliden)-1-methyl-piperidine]	–	–
3240	–	CCOc1ccc2c(c1)Sc1cccc(O)c1C2=C1CCN(C)CC1 [4-(6-Ethoxy-1-hydroxy-thioxanthen-9-yliden)-1-methyl-piperidine]	–	–
–	low affinity	N[C@@](CF)(Cc1cnc[nH]1)C(=O)O [FMH, (S)-α-fluoromethylhistidine]	only very mild sedative effects	strong reduction
